{
  "source": "patent US20090062302A1",
  "about": "“Jak2 Tyrosine Kinase Inhibition” (priority 2006, published 2009)",
  "tested_on": "patients with JAK2 positive refractory MPD",
  "experiment": "Clinical trial in patients with JAK2 positive refractory MPD",
  "format": "in vivo, human",
  "conditions": "one trial, eight patients",
  "data": [
    {"smiles": "Cc1cc(Nc2cc(N3CCN(C)CC3)nc(Sc3ccc(NC(=O)C4CC4)cc3)n2)n[nH]1", "note": "[Compound I, Cyclopropane carboxylic acid {4-[4-(4-methyl-piperazin-1-yl)-6-(5-methyl-2H-pyrazol-3-ylamino)-pyrimidin-2-ylsulphanyl]-phenyl}-amide]", "values": [
      {"measurement": "patients who achieved an objective response", "result": "six out of eight"}
    ]}
  ]
}
